In publication PMC10846744, “Cathelicidin peptide analogues inhibit EV71 infection through blocking viral entry and uncoating” (PLOS Pathogens, 2024):
Where no end group is shown, it is not given here.

Key:
RD cells = assay: Cytotoxicity of peptides on RD cells (Cell Titer-Glo); type: cell-based, human; conditions: cell viability plotted against peptide concentration, Cell Titer-Glo (S1A-S1D Fig)
Method: To test whether Cathelicidin peptide (LL-37) and its analogues could inhibit enterovirus infection, we conducted viral infection inhibition test on RD cells, which are one of the most commonly used cells for enterovirus propagation. We first assessed the cytotoxicity of LL-37, LL-18, FF-18, and a short form of LL-37 (DL-37) (Fig 1A), and all the peptides tested have a CC50 over 50 μM (S1A–S1D Fig). We then chose lower concentrations to test their antiviral activity. […] In addition, EV71 infection could cause cytopathic effect (CPE) on RD cells, and peptide could rescue EV71-induced cell death as assayed by crystal violet staining (Fig 1E) or cellular ATP content measurement (Fig 1F).
(§1) Cell viability assays were carried out using the Cell Titer-Glo Luminescent Cell Viability Assay Kit (Promega, Madison, WI) following the manufacturer’s instructions. Luminescence signals were measured using a BioTek Neo2 microplate reader.
(§2) (A-D) Cell viability of RD cells treated with the indicated amount of DL-37 (A), LL-37 (B), LL-18 (C), or FF-18 (D) was plotted against peptide concentration, and the cytotoxicity was determined. (E) EV71 virus pre-incubated with indicated amounts of DL-37, and the cell viability was determined 24 h.p.i. ***, P<0.001. (F-G) CVB5 (F) or Echo7 (G) virus pre-incubated with 0.3, 0.9, or 1.5 μM of peptides were used to infect RD cells. Cell viability was determined 24 h.p.i. ***, P<0.001. (H-I) CVB5 (H) or Echo7 (I) virus pre-incubated with 3, 6, or 12 μM of peptides were used to infect RD cells. Cell viability was determined 24 h.p.i. ***, P<0.001. (TIF) Click here for additional data file.

coxsackievirus B5 (CVB5) = assay: CVB5 infection inhibition on RD cells (cell viability); type: cell-based; conditions: for inhibition of CVB5 infection: 0.3, 0.9, or 1.5 μM peptide pre-incubated with virus, RD cell viability 24 h.p.i (S1F Fig); for inhibition of CVB5 infection, higher concentrations: 3, 6, or 12 μM peptide pre-incubated with virus, RD cell viability 24 h.p.i (S1H Fig)
Method: (§3) Synthetic peptides were purchased from Bioyears Co. Ltd. (Wuhan, China) with purity of more than 95% and dissolved in PBS. To test their inhibitory effects, the EV71 virus (MOI = 1) was incubated with the indicated amount of peptide at room temperature for 1 hr before the mixture was added to RD cells and maintained throughout the experiment. Cell viability, viral titer, or viral protein expression was determined 24 h.p.i. For the time-of-addition experiment, viruses were either pre-incubated with peptides (for the -2 and -1 time points), the mixture was added to the cells simultaneously (for 0 time point), or peptides were added after virus infection (for 1, 2, 4 and 7 h time points) and the virus/peptide was maintained in the culture before cell viability, viral titer, or viral protein expression was determined 24 h.p.i. The TCID50 of the virus was calculated according to the Reed-Muench method.
as §1, §2

Echovirus 7 (Echo7) = assay: Echo7 infection inhibition on RD cells (cell viability); type: cell-based; conditions: for inhibition of Echo7 infection: 0.3, 0.9, or 1.5 μM peptide pre-incubated with virus, RD cell viability 24 h.p.i (S1G Fig); for inhibition of Echo7 infection, higher concentrations: 3, 6, or 12 μM peptide pre-incubated with virus, RD cell viability 24 h.p.i (S1I Fig)
Method: as §3, §1, §2

EV71 virus = assay: 1H NMR titration of peptide with EV71 virus; type: binding, enterovirus 71 (EV71); conditions: molar ratio peptide to virus 90:1, 800 MHz, 298k
Method: The NMR titrations were performed on a Bruker 800 MHz (Avance NEO) spectrometer equipped with cryo-probe. The molar ratio of the peptide to the virus was 90:1. The experiments were recorded using zgespg pulse for 128 scans at 298k and the results were analyzed by Topspin.

EV71 virions = assay: Viral particle ultracentrifugation (uncoating with SCARB2 at pH 5.5); design: species or system enterovirus 71 (EV71); conditions: EV71 MOI = 10, 1.5 μg SCARB2, pH 5.5, 37°C 2 hrs, iodoxanol gradient ultracentrifugation, immunoblotting
Method: Fig 6 LL-18 stabilizes the viral particles by inhibiting uncoating. (A) EV71 virus (MOI = 10) was pre-incubated with PBS, indicated amount of LL-18 or NaCl for 1 hr and then mixed with SYBR green dyes II before they were heated to indicated temperatures. The fluorescent signals were measured and plotted against temperature. PBS was used as a negative control. (B) EV71 virus (MOI = 10) was pre-incubated with PBS, LL-18, or 12s for 2 hrs. Half of the samples were then treated with 1.5 μg SCARB2 protein and incubated at 37°C for 2 hrs at pH 5.5. Samples were then subjected to ultracentrifugation as detailed in materials and methods. The numbers above represent the fractions collected from top to bottom.
EV71 viruses were pre-incubated with either PBS, 12s, or LL-18 for 1 hr. Then half the samples were treated with 1.5 μg purified SCARB2 protein (Sino Biological, China) with pH adjusted to 5.5. The samples were incubated at 37°C for 2 hrs to simulate the virus uncoating environment. Viral particles were then loaded onto iodoxanol gradients (0% 500 μL, 21% 1 mL, 27% 1 mL, 33% 1 mL, 39% 1 mL) and ultra-centrifuged at 4°C, 45000 rpm for 1.5 hrs. 7 fractions were collected from the top, and samples were precipitated with Trichloroacetic acid (TCA) before being analyzed with immunoblotting.

FRKSKEKIGKFFKRIVQRIFDFLRNLV [FF-18]
CC50 (RD cells): over 50 μM
inhibition of CVB5 infection (coxsackievirus B5 (CVB5)): neither LL-18 nor FF-18 could inhibit CVB5 or Echo 7 infection
inhibition of CVB5 infection, higher concentrations (coxsackievirus B5 (CVB5)): could still not inhibit CVB5 or Echo 7 infection
inhibition of Echo7 infection (Echovirus 7 (Echo7)): neither LL-18 nor FF-18 could inhibit CVB5 or Echo 7 infection
inhibition of Echo7 infection, higher concentrations (Echovirus 7 (Echo7)): could still not inhibit CVB5 or Echo 7 infection

FRKSKEKIGKLFKRIVQRILDFLRNLV [LL-18]
CC50 (RD cells): over 50 μM
inhibition of CVB5 infection (coxsackievirus B5 (CVB5)): neither LL-18 nor FF-18 could inhibit CVB5 or Echo 7 infection
inhibition of CVB5 infection, higher concentrations (coxsackievirus B5 (CVB5)): could still not inhibit CVB5 or Echo 7 infection
inhibition of Echo7 infection (Echovirus 7 (Echo7)): neither LL-18 nor FF-18 could inhibit CVB5 or Echo 7 infection
inhibition of Echo7 infection, higher concentrations (Echovirus 7 (Echo7)): could still not inhibit CVB5 or Echo 7 infection
interaction of peptide with EV71 virus by 1H 1D NMR (amide region) (EV71 virus): chemical shift perturbation with multiple new peaks was observed
inhibition of uncoating (VP1 distribution in density gradient fractions) (EV71 virions): remained in the higher density fractions
